According to patent publication US9987329B2, “Methods for treating peripheral nerve damage” (Cornell University, priority 2014, dated 2018):

Experiments:
[1] = test system: trigeminal ganglion (TG) neuronal cells; test: Inhibition of VEGF-B induced neurite growth in TG neurons; type: cell-based, mouse; settings: 3 days
Description: (§1) Trigeminal ganglion (TG) neuronal cells were obtained and cultured as described previously. Pan, Z., Fukuoka et al., FASEB J. 27, 2756-2767 (2013). To evaluate the effect of VEGF-B on neuronal growth, TG neuronal cells were treated with 10-100 ng/ml recombinant mouse VEGF-B^186 (R&D 767-VE-010). The VEGF-B treatments were replenished every other day. Neurite formation and growth was followed up to 3 days. […] VEGF receptors were inhibited by using neutralizing antibodies against VEGFR1 (R&D AF471), VEGFR2 (R&D MAB4431) and Neuropilin 1 (NRP1) (R&D MAB566). TG cells were incubated in a dose dependent manner with anti-VEGFR1, anti-VEGFR2 or anti-NRP1 for 1 hour prior to the addition of 50 ng/ml VEGF-B. The tyrosine kinase domains of VEGFR2 were inhibited with specific inhibitors by incubating TG neuronal cells with 10 μM SU 1498 (Sigma T4192) or 5 nM Ki 8751 (Sigma K1265) for 1 hr before adding 50 ng/ml VEGF-B. All neurite growth was imaged with an AxioObserver Z1 fluorescence microscope in the YFP channel attached to an AxioCam HRm digital camera (Zeiss) operated by AxioVision 4.0 software. Images were analyzed using Neurolucida 9 (MBF Bioscience) a quantitative nerve tracing software.

[2] = test system: Human corneal limbal epithelial (HCLE) cells; test: In vitro scratch wound assay; type: cell-based; settings: 10 ng/ml
Description: Human corneal limbal epithelial (HCLE) cells were cultured in 6-well plates until confluency as described. Pan, Z., Fukuoka et al., FASEB J. 27, 2756-2767 (2013). Cells were starved in KSFM medium (gibco 10724-011) without supplements for 24 h. Then a straight-line scratch mark was made in each well with a 200 ul pipette tip. KSFM medium supplemented with VEGF-B^186 (50 ng/ml) or EGF (10 ng/ml, Millipore 01-101) was added to the wells. Scratch areas were imaged at 0, 8, 24 and 48 hours at the same locations using the mark and find module of the Axiovision software and the wound closure analyzed by Photoshop.

[3] = test system: trigeminal ganglion (TG) neuronal cells; test: Trigeminal ganglion neuronal growth assay; type: cell-based, mouse; settings: 50 ng/ml, three days in culture (FIG. 2A)
Description: as §1

[4] = test system: corneal nerves of Thy-1-YFP mice; test: Corneal nerve regeneration with combinations of VEGF-A and VEGF-B; type: in vivo, mouse; settings: ligand administered separately, two weeks post-injury (FIG. 14)
Description: Thy-1-YFP mice were subjected to cornea epithelium debridement to ablate the superficial nerve endings that innervate the cornea Immediately after injury, the mice were treated with different combinations of VEGF-A and VEGF-B. As shown, combinations of VEGF ligands induce greater nerve regeneration in vivo.
The observed effects were also recapitulated in vivo. Thy-1-YFP neurofluorescent mice were used to induce a corneal epithelium injury that results in ablation of the superficial nerve endings of the cornea. The mice were then treated with different combinations of VEGF-A and VEGF-B, and nerve regeneration was analyzed after two weeks post-injury.

COc1cc2nccc(Oc3ccc(NC(=O)Nc4ccc(F)cc4F)c(F)c3)c2cc1OC [Ki 8751]
inhibition of VEGF-B induced neurite growth ([1]; 5 nM, 1 hr before 50 ng/ml VEGF-B): does not block

CC(C)c1cc(/C=C(\C#N)C(=O)NCCCc2ccccc2)cc(C(C)C)c1O [SU 1498]
inhibition of VEGF-B induced neurite growth ([1]; 10 μM, 1 hr before 50 ng/ml VEGF-B): does not block

EGF: epidermal growth factor (Millipore 01-101), a known inducer of epithelial cell proliferation
time of complete confluence of the scratch area [2]: 24 h
time to complete closure of the scratch area [2]: < 24 h
onset of cell growth into the scratch area ([2]; post-treatment): 8 h

B1: VEGF-A: vascular endothelial growth factor A; 232 amino acid protein, NextProt NX_P15692, SEQ ID NO. 2 (protein, listed as Homo sapiens)
chain: MNFLLSWVHWSLALLLYLHVKFMDVYQRSYCHPIETLVDIFQEYPDEIEYIFKPSCVPLMRCGGCCNDEGLECVPTEESNITMQIMRIKPHQGQHIGEMSFLQHNKCECRPKKDRARQEKKSVRGKGKGQKRKRKKSRYKSWSVYVGARCCLMPWSLPGPHPCGPCSERRKHLFVQDPQTCKCSCKNTDSRCKARQLELNERTCRCDKPRRHAKWSQAAPMAEGGGQNHHEV
pattern of neurite growth (elongation and branching) [3]: mainly neurite elongation with few branching nodes
nerve regeneration [4]: induced greater nerve regeneration

B2: soluble VEGFR1: recombinant human-soluble VEGFR1 (sVEGFR1/sFlt1, CellSciences CRF103) (protein)
chain: SKLKDPELSLKGTQHIMQAGQTLHLQCRGEAAHKWSLPEMVSKESERLSITKSACGRNGKQFCSTLTLNTAQANHTGFYSCKYLAVPTSKKKETESAIYIFISDTGRPFVEMYSEIPEIIHMTEGRELVIPCRVTSPNITVTLKKFPLDTLIPDGKRIIWDSRKGFIISNATYKEIGLLTCEATVNGHLYKTNYLTHRQTNTIIDVQISTPRPVKLLRGHTLVLNCTATTPLNTRVQMTWSYPDEKNKRASVRRRIDQSNSHANIFYSVLTIDKMQNKDKGLYTCRVRSGPSFKSVNTSVHIYDKAFITVKHRKQQVLETVAGKRSYRLSMKVKAFPSPEVVWLKDGLPATEKSARYLTRGYSLIIKDVTEEDAGNYTILLSIKQSNVFKNLTATLIVNVKPQIYEKAVSSFPDPALYPLGSRQILTCTAYGIPQPTIKWFWHPCNHNHSEARCDFCSNNEESFILDADSNMGNRIESITQRMAIIEGKNKMASTLVVADSRISGIYICIASNKVGTVGRNISFYITDVPNGFHVNLEKMPTEGEDLKLSCTVNKFLYRDVTWILLRTVNNRTMHYSISKQKMAITKEHSITLNLTIMNVSLQDSGTYACRARNVYTGEEILQKKEITIRGEHCNKKAVFSRISKFKSTRNDCTTQSNVKH
inhibition of VEGF-B induced neurite growth ([1]; equal molar concentration (2.6 nM) with 50 ng/ml VEGF-B): inhibited
